These results are taken from article PMC6245189 (Molecules, 2008).

Assay [1] addresses T1, bovine testes hyaluronidase (BTH) (Bos taurus, UniProt Q2YDK3).
T1 sequence (Q2YDK3 36-553): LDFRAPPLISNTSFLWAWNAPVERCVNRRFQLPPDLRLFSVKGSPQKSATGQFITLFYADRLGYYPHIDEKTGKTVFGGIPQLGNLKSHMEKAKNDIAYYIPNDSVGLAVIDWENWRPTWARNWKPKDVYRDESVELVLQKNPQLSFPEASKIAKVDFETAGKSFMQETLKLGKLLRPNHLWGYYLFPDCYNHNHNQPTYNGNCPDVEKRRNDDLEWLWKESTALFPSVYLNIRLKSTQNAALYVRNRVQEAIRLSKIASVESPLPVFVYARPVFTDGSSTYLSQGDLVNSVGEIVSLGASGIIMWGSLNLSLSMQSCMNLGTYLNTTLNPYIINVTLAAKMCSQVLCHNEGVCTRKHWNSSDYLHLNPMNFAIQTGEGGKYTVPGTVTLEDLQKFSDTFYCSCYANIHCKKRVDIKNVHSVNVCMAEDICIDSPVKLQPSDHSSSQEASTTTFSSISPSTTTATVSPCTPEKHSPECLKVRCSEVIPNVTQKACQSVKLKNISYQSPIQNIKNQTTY
Kind of assay: Morgan-Elson assay at pH […]. The conditions noted are these: read-out: IC50 [μM] / 3.5. It is filed as biochemical.

Assay [2] deals with T1, bovine testes hyaluronidase (BTH). Kind of assay: stains-all assay at pH […] and Morgan-Elson assay at pH […]. Type of assay: biochemical. The conditions noted are these: read-out: IC50 [μM] / pH7.

For `CCCCCCCCCCCCCCCC(=O)OC[C@H](O)[C@H]1OC(=O)C(O)=C1O` [6-palmitoyl-L-ascorbic acid], the IC50 in assay [1] is 8 µM.
Take `Oc1ccc(-c2[nH]c3ccccc3c2-c2ccccc2)cc1` [compound 12, 4-(3-Phenyl-1H-indol-2-yl)phenol]: in assay [2], the IC50 is 107 µM.
